According to PMC9858543, “Design, synthesis and evaluation of 2, 6, 8-substituted Imidazopyridine derivatives as potent PI3Kα inhibitors” (Journal of Enzyme Inhibition and Medicinal Chemistry, 2023):

Target: T1, PI3Kα (Homo sapiens, UniProt P42336)
T1 construct: purchased Invitrogen
Experiment: In vitro PI3Kα enzymatic assay (ADP-Glo / Kinase-Glo, ATP 25 μM)
Assay type: biochemical
Conditions: PI3Kα, compound 10 μM, ATP 25 μM; mean ± SD of three determinations
Method: To screen the inhibitory activity of the target compounds against PI3Kα, the Kinase-Glo™ assay with ATP at 25 μM was utilised with PIK-75 as positive control. We chose to explore the SARs at three positions on the Imidazo[1,2-a]pyridine core. To start with, a set of 8-position modifications were prepared while keeping the morpholinyl amide substituent on 2-position fixed, since it allowed quick structure − activity profiling via coupling reactions of bromide with aryl borates or boronic acids. […] We then turned our attention back to the phenyl substituents.
Briefly, the compound, PI3K enzyme (PI3Kα from Invitrogen), the PIP2 (Life Technologies) substrate, and ATP (25 μM, Sigma) were diluted in kinase buffer to the indicated concentrations. The assay plate was covered and incubated at room temperature for 1 h. Then, the Kinase-Glo reagent (Promega) was added to the PI3Kα plate to stop the reaction, mixed briefly with centrifuge, shaken slowly on the shaker and then equilibrate for 120 min. Finally, add Kinase detection reagent to each well, shake 1 min, equilibrate for 30 min before reading on a plate reader for luminescence. The data were collected on Envision and presented in Excel. IC50 values were calculated from the inhibition curves.

T1 sequence (P42336 whole entry): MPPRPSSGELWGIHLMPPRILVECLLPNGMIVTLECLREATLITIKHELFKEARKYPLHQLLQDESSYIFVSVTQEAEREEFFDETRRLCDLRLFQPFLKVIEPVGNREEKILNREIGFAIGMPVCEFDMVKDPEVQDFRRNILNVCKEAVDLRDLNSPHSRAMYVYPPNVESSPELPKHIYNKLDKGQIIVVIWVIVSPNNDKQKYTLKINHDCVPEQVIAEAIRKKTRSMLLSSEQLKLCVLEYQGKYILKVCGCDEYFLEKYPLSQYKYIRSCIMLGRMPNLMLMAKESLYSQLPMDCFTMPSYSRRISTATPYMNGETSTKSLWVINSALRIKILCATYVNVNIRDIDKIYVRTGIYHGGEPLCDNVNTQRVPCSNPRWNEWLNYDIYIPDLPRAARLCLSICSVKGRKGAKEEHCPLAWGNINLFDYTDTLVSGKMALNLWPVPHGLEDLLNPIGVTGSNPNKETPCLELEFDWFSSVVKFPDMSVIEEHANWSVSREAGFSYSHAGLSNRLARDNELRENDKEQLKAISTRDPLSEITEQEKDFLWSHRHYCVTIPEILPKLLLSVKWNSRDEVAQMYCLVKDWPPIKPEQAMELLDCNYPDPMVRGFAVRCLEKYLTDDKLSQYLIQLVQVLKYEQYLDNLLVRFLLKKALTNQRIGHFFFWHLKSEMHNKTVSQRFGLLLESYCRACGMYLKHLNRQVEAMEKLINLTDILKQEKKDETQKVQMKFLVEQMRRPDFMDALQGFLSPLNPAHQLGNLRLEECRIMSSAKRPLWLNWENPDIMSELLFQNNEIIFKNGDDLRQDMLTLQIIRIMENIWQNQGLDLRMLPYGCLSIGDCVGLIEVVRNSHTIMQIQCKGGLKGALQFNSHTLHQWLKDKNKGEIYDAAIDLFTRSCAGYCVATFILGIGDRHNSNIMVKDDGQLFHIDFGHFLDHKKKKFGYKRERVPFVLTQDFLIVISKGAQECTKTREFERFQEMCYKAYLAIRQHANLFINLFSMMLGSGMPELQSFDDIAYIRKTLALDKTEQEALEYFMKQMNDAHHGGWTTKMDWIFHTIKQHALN
T1 sequence (P27986 whole entry partner): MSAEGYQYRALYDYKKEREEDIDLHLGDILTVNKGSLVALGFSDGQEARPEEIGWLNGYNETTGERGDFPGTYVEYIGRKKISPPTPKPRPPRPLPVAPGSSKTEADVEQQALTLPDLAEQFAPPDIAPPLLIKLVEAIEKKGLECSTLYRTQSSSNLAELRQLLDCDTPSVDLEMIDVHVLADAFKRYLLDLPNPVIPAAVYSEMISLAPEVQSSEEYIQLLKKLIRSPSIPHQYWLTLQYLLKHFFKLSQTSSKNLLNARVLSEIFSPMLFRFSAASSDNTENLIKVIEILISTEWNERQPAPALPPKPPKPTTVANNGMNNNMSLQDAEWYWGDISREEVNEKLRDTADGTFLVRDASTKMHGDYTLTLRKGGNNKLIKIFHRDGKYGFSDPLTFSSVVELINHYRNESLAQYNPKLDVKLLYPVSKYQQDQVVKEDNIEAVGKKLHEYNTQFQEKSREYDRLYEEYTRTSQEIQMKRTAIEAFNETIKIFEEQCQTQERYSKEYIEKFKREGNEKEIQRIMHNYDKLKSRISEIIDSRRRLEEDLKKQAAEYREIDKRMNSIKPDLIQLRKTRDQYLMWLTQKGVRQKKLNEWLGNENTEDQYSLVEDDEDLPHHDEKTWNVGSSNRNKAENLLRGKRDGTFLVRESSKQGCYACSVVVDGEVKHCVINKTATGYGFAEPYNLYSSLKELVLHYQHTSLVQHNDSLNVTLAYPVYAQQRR

Compound | % Inhibition at 10 μM [%]
1-Cyclohexyl-3–(3-(6-methyl-2–(4-methylpiperidine-1-carbonyl)Imidazo[1,2-a]pyridin-8-yl)phenyl)urea [Compound 33] | 44.5 ± 1.2

Same assay, conditions: PI3Kα, compound 10 μM, ATP 25 μM; mean ± SD of three determinations; read-out: % Inhibition at 10 μM

Compound | inhibition at 10 µM [%]
Cc1cc(-c2ccc(F)cc2)c2nc(C(=O)N3CCOCC3)cn2c1 [Compound 15, (8–(4-Fluorophenyl)-6-methylImidazo[1,2-a]pyridine-2-yl)(morpholino)methanone] | 31.9 ± 2.9
Cc1cc(-c2cccc(F)c2)c2nc(C(=O)N3CCOCC3)cn2c1 [Compound 16, (8–(3-Fluorophenyl)-6-methylImidazo[1,2-a]pyridin-2-yl)(morpholino)methanone] | 38.2 ± 3.6
Cc1cc(-c2ccccc2F)c2nc(C(=O)N3CCOCC3)cn2c1 [Compound 17, (8–(2-Fluorophenyl)-6-methylImidazo[1,2-a]pyridin-2-yl)(morpholino)methanone] | 14.1 ± 2.7
Cc1cc(-c2ccc(NC(=O)c3cccc(F)c3)cc2)c2nc(C(=O)N3CCOCC3)cn2c1 [Compound 18, 3-Fluoro-N-(4–(6-methyl-2-(morpholine-4-carbonyl)Imidazo[1,2-a]pyridin-8-yl)phenyl)benzamide] | 47.6 ± 3.9
Cc1cc(-c2cccnc2)c2nc(C(=O)N3CCOCC3)cn2c1 [Compound 20, (6-Methyl-8-(pyridin-3-yl)Imidazo[1,2-a]pyridin-2-yl)(morpholino)methanone] | 30.2 ± 2.1
COc1ccc(-c2cc(C)cn3cc(C(=O)N4CCOCC4)nc23)cn1 [Compound 21, (8–(6-Methoxypyridin-3-yl)-6-methylImidazo[1,2-a]pyridin-2-yl)(morpholino)methanone] | 39.9 ± 3
Cc1cc(-c2ccc(F)cc2)c2nc(C(=O)N3CCCC3)cn2c1 [Compound 22, (8–(4-Fluorophenyl)-6-methylImidazo[1,2-a]pyridin-2-yl)(pyrrolidin-1-yl)methanone] | 33.3 ± 4.2
Cc1cc(-c2cccc(F)c2)c2nc(C(=O)N3CCCC3)cn2c1 [Compound 23, (8–(3-Fluorophenyl)-6-methylImidazo[1,2-a]pyridin-2-yl)(pyrrolidin-1-yl)methanone] | 43.9 ± 1.8
Cc1cc(-c2cccnc2)c2nc(C(=O)N3CCCC3)cn2c1 [Compound 24, (6-Methyl-8-(pyridin-3-yl)Imidazo[1,2-a]pyridin-2-yl)(pyrrolidin-1-yl)methanone] | 29.6 ± 2.1
COc1ccc(-c2cc(C)cn3cc(C(=O)N4CCCC4)nc23)cn1 [Compound 25, (8–(6-Methoxypyridin-3-yl)-6-methylImidazo[1,2-a]pyridin-2-yl)(pyrrolidin-1-yl)methanone] | 44.3 ± 1.5
Cc1cc(-c2ccc(NC(=O)c3cccc(F)c3)cc2)c2nc(C(=O)N3CCCC3)cn2c1 [Compound 26, 3-Fluoro-N-(4–(6-methyl-2-(pyrrolidine-1-carbonyl)Imidazo[1,2-a]pyridin-8-yl)phenyl)benzamide] | 57.9 ± 4.6
CCN(CC)S(=O)(=O)c1cccc(-c2cc(C)cn3cc(C(=O)N4CCCC4)nc23)c1 [Compound 28, N,N-Diethyl-3–(6-methyl-2-(pyrrolidine-1-carbonyl)Imidazo[1,2-a]pyridin-8-yl)benzenesulfonamide] | 66.1 ± 4.4
Cc1cc(-c2cccc(F)c2)c2nc(C(=O)N3CCC(C)CC3)cn2c1 [Compound 29, (8–(3-Fluorophenyl)-6-methylImidazo[1,2-a]pyridin-2-yl)(4-methylpiperidin-1-yl)methanone] | 30.4 ± 3.1
Cc1cc(-c2ccncc2)c2nc(C(=O)N3CCC(C)CC3)cn2c1 [Compound 30, (6-Methyl-8-(pyridin-4-yl)Imidazo[1,2-a]pyridin-2-yl)(4-methylpiperidin-1-yl)methanone] | 9.3 ± 1.7
Cc1cc(-c2cccnc2)c2nc(C(=O)N3CCC(C)CC3)cn2c1 [Compound 31, (6-Methyl-8-(pyridin-3-yl)Imidazo[1,2-a]pyridin-2-yl)(4-methylpiperidin-1-yl)methanone] | 28.5 ± 1.6
COc1ncc(-c2cc(C)cn3cc(C(=O)N4CCCC4)nc23)cc1NS(=O)(=O)c1ccccc1 [Compound 34, N-(2-methoxy-5–(6-methyl-2-(pyrrolidine-1-carbonyl)Imidazo[1,2-a]pyridin-8-yl)pyridin-3-yl)benzenesulfonamide] | 49.8 ± 1.6
COc1ncc(-c2cc(C)cn3cc(C(=O)N4CCOCC4)nc23)cc1NS(=O)(=O)c1ccc(F)cc1F [Compound 37, 2,4-Difluoro-N-(2-methoxy-5–(6-methyl-2-(morpholine-4-carbonyl)Imidazo[1,2-a]pyridin-8-yl)pyridin-3-yl)benzenesulfonamide] | 67.5 ± 0.3
COc1ncc(-c2cc(C)cn3cc(C(=O)NCCN4CCOCC4)nc23)cc1NS(=O)(=O)c1ccc(F)cc1F [Compound 38, 8–(5-((2,4-Difluorophenyl)sulfonamido)-6-methoxypyridin-3-yl)-6-methyl-N-(2-morpholinoethyl)Imidazo[1,2-a]pyridine-2-carboxamide] | 81.6 ± 2.8
COc1ncc(-c2cc(C)cn3cc(C(=O)NCCCN4CCOCC4)nc23)cc1NS(=O)(=O)c1ccc(F)cc1F [Compound 39, 8–(5-((2,4-Difluorophenyl)sulfonamido)-6-methoxypyridin-3-yl)-6-methyl-N-(3-morpholinopropyl)Imidazo[1,2-a]pyridine-2-carboxamide] | 70.2 ± 3.6
COc1ncc(-c2cc(C)cn3cc(C(=O)NCCCN4CCOCC4)nc23)cc1NS(=O)(=O)c1ccc(F)cc1 [Compound 41, 8–(5-((4-Fluorophenyl)sulfonamido)-6-methoxypyridin-3-yl)-6-methyl-N-(3-morpholinopropyl)Imidazo[1,2-a]pyridine-2-carboxamide] | 75.7 ± 2.9
COc1ncc(-c2cc(C)cn3cc(C(=O)N4CCOCC4)nc23)cc1NS(=O)(=O)c1ccc(F)cc1 [Compound 42, 4-Fluoro-N-(2-methoxy-5–(6-methyl-2-(morpholine-4-carbonyl)Imidazo[1,2-a]pyridin-8-yl)pyridin-3-yl)benzenesulfonamide] | 69.2 ± 6.4
COc1ncc(-c2cc(C)cn3cc(C(=O)N4CCC(C)CC4)nc23)cc1NS(=O)(=O)c1ccc(F)cc1 [Compound 43, 4-Fluoro-N-(2-methoxy-5–(6-methyl-2–(4-methylpiperidine-1-carbonyl)Imidazo[1,2-a]pyridin-8-yl)pyridin-3-yl)benzenesulfonamide] | 62.8 ± 4.6
COc1ncc(-c2cc(C)cn3cc(C(=O)N4CCN(C)CC4)nc23)cc1NS(=O)(=O)c1ccc(F)cc1 [Compound 44, 4-Fluoro-N-(2-methoxy-5–(6-methyl-2–(4-methylpiperazine-1-carbonyl)Imidazo[1,2-a]pyridin-8-yl)pyridin-3-yl)benzenesulfonamide] | 53.4 ± 5.1
COc1ncc(-c2cc(Cl)cn3cc(C(=O)NCCCN4CCOCC4)nc23)cc1NS(=O)(=O)c1ccc(F)cc1F [Compound 45, 6-Chloro-8–(5-((2,4-difluorophenyl)sulfonamido)-6-methoxypyridin-3-yl)-N-(3-morpholinopropyl)Imidazo[1,2-a]pyridine-2-carboxamide] | 59.8 ± 3.5
COc1ncc(-c2cccn3cc(C(=O)N4CCC(C)CC4)nc23)cc1NS(=O)(=O)c1ccc(F)cc1 [Compound 46, 4-Fluoro-N-(2-methoxy-5–(2-(4-methylpiperidine-1-carbonyl)Imidazo[1,2-a]pyridin-8-yl)pyridin-3-yl)benzenesulfonamide] | 40.2 ± 3
